From patent US8314139B2, “Toluene sulfonic acid salt of a therapeutic compound and pharmaceutical compositions thereof” (Pfizer Inc., priority 2007, dated 2012)
Where a name gives a salt, the structure may show the parent alone.

How the values were obtained:
[1] = Aqueous solubility (RP-HPLC after temperature cycling); assay type: physicochemical; conditions: for solubility at 25 h: thermodynamic from solid
Procedure: The following information was determined in regard of aqueous solubility. […] These values represent the solubility of the crystalline compound determined via RP-HPLC analysis after subjecting the drug media mixture to a temperature cycling program (40° C. for 8 hours, 15° C. for 5 hours, and 25° C. for 12 hours).

[2] = Hygroscopicity by dynamic vapor sorption (DVS); assay type: physicochemical
Procedure: Hygroscopicity was assessed using a dynamic vapor sorption technique in which an accurately weighed sample is subjected to progressively changing water vapor pressure while simultaneously recording the weight change. The experiment is conducted isothermally at 25° C.
FIG. 3 provides a moisture sorption isotherm of the tosylate salt of trans-N-ethyl-3-fluoro-3-[3-fluoro-4-(pyrrolidin-1-ylmethyl)phenyl]cyclobutanecarboxamide, with absorption as the (♦) curve and desorption as the (▪) curve, plotting percent change in weight as a function of relative humidity, using the kinetic flow through method (8.1 mg sample, 25° C.).
During the initial drying cycle (25° C., 1% RH), less than 0.1% weight loss was observed, which is consistent with an anhydrous non-hygroscopic form. An approximate 0.06% increase in weight was detected by DVS analysis when a sample was exposed to relative humidities from 5% to 90% at 25° C. The desorption phase mimicked the sorption phase when the relative humidity was decreased to 5% (see FIG. 3). Additionally, the powder x-ray diffraction pattern for the sample after hygroscopicity testing matched the pattern of the sample prior to that testing.

Compound: CCNC(=O)[C@H]1C[C@@](F)(c2ccc(CN3CCCC3)c(F)c2)C1 [tosylate salt, (trans)-3-fluoro-3-[3-fluoro-4-(pyrrolidin-1-ylmethyl)phenyl]cyclobutanecarboxylic acid ethylamide tosylate salt]
- solubility at 25 h ([1]; 25 °C, fassif, 0.1M phosphate buffered saline with 0.5 weight percent sodium tauracholate/phosphatidyl choline salts, final pH 6.5, temperature cycling): > 11 mg/mL
- solubility at 25 h ([1]; 25 °C, unbuffered water, final pH 3.8, temperature cycling): 23.6 mg/mL
- solubility at 25 h ([1]; aqueous buffer, 0.1M phosphate buffered saline, final pH 6.5, crystalline compound, temperature cycling 40/15/25° C.): > 10 mg/mL
- aqueous solubility (in words) ([1]; summary statement): high aqueous solubility
- weight loss during initial drying cycle ([2]; 25° C., 1% RH): less than 0.1%
- increase in weight by DVS analysis ([2]; relative humidities from 5% to 90% at 25° C.): ~0.06%
- hygroscopicity (in words) ([2]; summary statement): only slightly hygroscopic
